According to ChEMBL document CHEMBL1201862, “PubChem BioAssay data set” (2004):
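Assay format: 96-well plates, 48-hour exposure. The concentration for 50% growth inhibition is given as GI50.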 Calls of active or inactive are those of the source. Rule as the data show it: active = GI50 up to about 1.1 µM and inactive = higher.

Legend:
Assay in all cases: DTP human tumour cell line panel, 48 h
DMS-114 = test system: DMS-114
DMS-273 = test system: DMS-273
HOP-18 = test system: HOP-18
SNB-78 = test system: SNB-78
XF498 = test system: XF498
BT-549 = test system: BT-549
Hs-578T = test system: Hs-578T
M19-MEL = test system: M19-MEL

SMILES | GI50 (DMS-114) | GI50 (DMS-273) | GI50 (HOP-18) | GI50 (SNB-78) | GI50 (XF498) | GI50 (BT-549) | GI50 (Hs-578T) | GI50 (M19-MEL)
COc1ccc(C(=O)C(C(=O)C(=O)NCCCNC(=O)C(=O)C(C(=O)c2ccc(OC)cc2)c2ccc(OC)cc2)c2ccc(OC)cc2)cc1 (stereo not given) | > 100 µM (inactive) | > 100 µM (inactive) | > 100 µM (inactive) | > 100 µM (inactive) | > 100 µM (inactive) |  |  | 
COC1(OC)CCC2(C)OC(c3ccccc3)C1O2 (stereo not given) | > 100 µM (inactive) | > 100 µM (inactive) |  |  | > 100 µM (inactive) |  |  | 
COc1ccc(-c2nc(-c3cc4ccccc4oc3=O)cs2)cc1 |  |  |  |  |  | > 100 µM (inactive) | 40.9 µM (inactive) | 
COc1ccc(-c2cc(N3CCN(c4ccc(Cl)cc4)CC3)c(C#N)c(=O)o2)cc1 | 7.41 µM (inactive) | 16.3 µM (inactive) | 4.24 µM (inactive) | 11.7 µM (inactive) | 3.09 µM (inactive) |  |  | 
O=C(N/C(=C\c1ccccc1)c1nc2ccccc2c(=O)o1)c1ccccc1 |  |  |  |  |  | 20 µM (inactive) | 22.1 µM (inactive) | 
CC1(CO)C(O)CCC2(C)C1CCC1CC3CC12CCC3(O)CO (stereo not given) | 2.34 µM (inactive) | 0.44 µM (active) | 18.6 µM (inactive) | > 100 µM (inactive) | 64.7 µM (inactive) |  |  | 26.2 µM (inactive)
CCOC(=O)C(C)NC(=O)N(C)C12CC3CC(CC(C3)C1)C2 (stereo not given) | 115 µM (inactive) | 209 µM (inactive) | 210 µM (inactive) | 277 µM (inactive) | 192 µM (inactive) |  |  | 177 µM (inactive)
[O-]c1c[n+](CC[n+]2cc([O-])on2)no1 |  |  |  |  |  | > 100 µM (inactive) | > 100 µM (inactive) | 
CCOC(=O)c1csc(-c2nc(CCNC(=O)c3ccccc3)sc2Cl)n1 |  |  |  |  |  | 32.7 µM (inactive) | > 100 µM (inactive) | 
c1c(N2CCOCC2)s[s+]c1N1CCOCC1 | > 100 µM (inactive) | > 100 µM (inactive) | > 100 µM (inactive) | > 100 µM (inactive) |  |  |  | 
OC1C[C@H](c2ccccc2)C2(C(O)c3ccccc3C2O)[C@@H](c2ccccc2)C1 (stereo not given in full) |  |  |  |  |  | > 100 µM (inactive) | > 100 µM (inactive) | 
Nc1cc2c(c3ccccc13)C(CCl)CN2C(=O)c1cc2cc(NC(=O)c3cc4ccccc4o3)ccc2[nH]1 (stereo not given) |  |  |  |  |  | 0.00126 µM (active) | 0.0169 µM (active) | 
O[C@@H]1CCC[C@@H]2NC[C@@H](c3ccc4c(c3)OCO4)[C@H]12 |  |  |  |  |  |  | 99.1 µM (inactive) | 
COc1cc(/C=C2\CCC(C)C3=C(c4cc(OC)c(OC)c(OC)c4)C(C#N)=C(N)OC32)cc(OC)c1OC (stereo not given) |  |  |  |  |  | 5.97 µM (inactive) | 2.1 µM (inactive) | 
COc1ccc(-c2nc3ccccc3c(=S)n2OC(C)=O)cc1 |  |  |  |  |  | 8.57 µM (inactive) | 12.2 µM (inactive) | 
O=C1Nc2ccccc2S/C1=C\c1cccc(C(F)(F)F)c1 |  |  |  |  |  | > 100 µM (inactive) | > 100 µM (inactive) | 
CSCCCCCCCCCCOc1ccc(C=C2C(=C(C#N)C#N)c3ccccc3C2=C(C#N)C#N)cc1 |  |  |  |  |  |  | 20.5 µM (inactive) | 
CN(C)CCNc1c([N+](=O)[O-])cc2c3c(cccc13)C(=O)N(CCN(C)C)C2=O | 1.27 µM (inactive) | 1.07 µM (active) | 1.52 µM (inactive) | 1.61 µM (inactive) | 1.55 µM (inactive) |  |  | 1.6 µM (inactive)
COc1ccc(S(=O)(=O)c2ccccc2[N+](=O)[O-])cc1 | 57.7 µM (inactive) | > 100 µM (inactive) | > 100 µM (inactive) |  |  |  |  | 77.8 µM (inactive)
O=c1ccc2ccccc2o1 [COUMARIN] | > 100 µM (inactive) |  | > 100 µM (inactive) | > 100 µM (inactive) | > 100 µM (inactive) |  |  | > 100 µM (inactive)
O=C1NC(N2CCOCC2)=N/C1=C\c1ccccc1O |  |  |  |  |  |  | > 100 µM (inactive) | 
COC(=O)Cc1cc(=O)n2c([nH]c3ccccc32)c1C#N | > 100 µM (inactive) | > 100 µM (inactive) |  | > 100 µM (inactive) | > 100 µM (inactive) |  |  | > 100 µM (inactive)
O=C(Cn1cc(F)c(=O)[nH]c1=O)C12CC3CC(CC(C3)C1)C2 |  |  |  |  |  | > 100 µM (inactive) | > 100 µM (inactive) | 
CO[C@H]1O[C@@H]2CO[C@@H](c3ccccc3)O[C@H]2[C@@H]2C/C=C\CCC[C@@]12O |  |  |  |  |  | 20.2 µM (inactive) |  | 
N#C/C(C(=O)Nc1ccc(Cl)cc1)=C(/N)N1CCOCC1 |  |  |  |  |  | > 100 µM (inactive) |  | 
CCN(CC)CCCNc1nncc2c(C)c3[nH]c4ccccc4c3cc12 |  |  |  |  |  | 1.34 µM (inactive) | 0.865 µM (active) | 
CCOC1Oc2ccccc2-c2nc(N)ncc21 (stereo not given) |  |  |  |  |  | 31.3 µM (inactive) | 29.2 µM (inactive) | 
C=C(Cl)C(Cl)(CBr)CCC(Cl)C(C)C (stereo not given) |  |  |  |  |  | 14.3 µM (inactive) | 1.16 µM (inactive) | 
CC1(C)S[C@@H]2[C@H](NC(=O)CCC[C@@H](N)C(=O)O)C(=O)N2[C@H]1C(=O)O [ADICILLIN] |  | > 50 µM (inactive) | > 50 µM (inactive) | > 50 µM (inactive) | 24.1 µM (inactive) |  |  | > 50 µM (inactive)
